Measurements from paper PMC3052630 (Bioorganic & medicinal chemistry letters, 2011).
One block for each compound: values may come before it.

Experiments:
[1] = mouse plasma and brain levels; assay type: in vivo; settings: 10 mg/kg ip 2h
rat pharmacokinetics = assay type: in vivo
p38 = p38 (Homo sapiens, UniProt Q16539); test: p38 biochemical inhibition / selectivity; settings: for selectivity over p38: JNK3 vs p38
Sequence of p38 (Q16539 whole entry): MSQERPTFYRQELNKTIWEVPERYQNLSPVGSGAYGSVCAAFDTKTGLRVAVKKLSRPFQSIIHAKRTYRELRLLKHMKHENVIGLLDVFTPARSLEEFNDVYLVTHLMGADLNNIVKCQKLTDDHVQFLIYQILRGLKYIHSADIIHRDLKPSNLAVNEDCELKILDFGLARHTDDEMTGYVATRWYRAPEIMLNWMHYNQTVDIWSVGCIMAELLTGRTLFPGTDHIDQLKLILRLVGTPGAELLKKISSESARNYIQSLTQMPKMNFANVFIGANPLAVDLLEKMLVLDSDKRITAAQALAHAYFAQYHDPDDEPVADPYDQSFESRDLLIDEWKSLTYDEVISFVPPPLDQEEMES

- mouse [brain] [1]: 7.2 µM
SMILES: Cn1cc(-c2ccc3cnc(Nc4ccc(-n5cnc(N6CCOCC6)n5)cc4)nc3c2)cn1 [compound 3]

- clearance (rat pharmacokinetics; rat, plasma, iv, 1 mg/kg): 6 mL/min/kg
- selectivity over p38 (p38): > 500 fold
SMILES: Cn1cc(-c2ccc3cnc(Nc4ccc(-n5cnc(N6CCOCC6)n5)cc4)nc3c2Cl)cn1 [13a]

Second part, the compound before the results:

SMILES: Cc1ncn(-c2ccc(Nc3ncc4cccc(-c5nccs5)c4n3)cc2)n1 [9g]
- PK properties (rat pharmacokinetics; data not shown, species not given): poor

SMILES: Cc1ccc(-c2cccc3cnc(Nc4ccc(-n5cnc(N6CCOCC6)n5)cc4)nc23)cn1 [9a]
- mouse [plasma] [1]: 2.72 µM

SMILES: Cn1cc(-c2ccc3cnc(Nc4ccc(-n5cnc(N6CCOCC6)n5)cc4)nc3c2-c2cnn(C)c2)cn1 [14d]
- IC50 (p38): > 20 µM
- selectivity over p38 (p38): > 2200 fold
